The subject of assay [1] is E. coli ML 4707. As to the kind of experiment: Combination with antibiotics, normal state (Table 11). To be noted: only ampicillin, 12.5 mg/kg twice. The assay is classed as in vivo, E. coli; male mice of the ICR/JCL strain. Here is the method: A sample was administered subcutaneously to the back of each of 5-weeks-old male mice of the ICR/JCL strain having a body weight of about 25 g (each group consisting of 10 mice) once a day continuously for five days (5 times in total). PS was given to a control group. On the sixth day, 1.0×10^7 cells of E. coli ML 4707 was challenged thereto by the intraperitoneal injection. 12.5 mg/kg of ampicillin (Ampicillin sodium for injection; produced by Toyama Kagaku Co., Ltd., Japan) was administered to each mouse twice (directly after the intraperitoneal injection and 4 hours thereafter). Seven days after the challenge, viable count was examined.

For assay [2], the system named is E. coli ML 4707. The assay is described as follows: Combination with an antibiotic in the immunosuppressive state (Table 12). To be noted: only ampicillin, 6.25 mg/kg s.c.; cyclophosphamide. It is filed as in vivo, E. coli; female mice of the ICR/JCL strain. Here is the method: A sample was administered subcutaneously to the back of each of 5-weeks-old female mice of the ICR/JCL strain having a body weight of about 25 g (each group consisting of 10 mice) once a day continuously for four days (4 times in total). PS was given to a control group. On the first day, 200 mg/kg of cyclophosphamide was injected to them by the intraperitoneal injection. On the next day of the final administration (i.e. on the fifth day), 1.0×10^6 cells of E. coli ML 4707 was challenged thereto by the intraperitoneal injection. One hour thereafter, 6.25 mg/kg of ampicillin (Ampicillin-sodium for injection; produced by Toyama Kagaku Co., Ltd., Japan) was administered to the back of each mouse by the subcutaneous injection. Seven days after the challenge, viable count was examined.

`CC1(C)S[C@@H]2[C@H](NC(=O)[C@H](N)c3ccccc3)C(=O)N2[C@H]1C(=O)O` [ampicillin]: the Viable count stood at 20% with E. coli ML 4707 [1] and 10% in the assay with E. coli ML 4707 [2].

The values are drawn from US4528188A, “Polysaccharide PS-A obtained from barrenwort deriving from plants belonging to the genus Epimedium, process for preparation thereof and phylactic and immunostimulating agents comprising said polysaccharide PS-A effective component” (priority 1981, dated 1985).
